Reference: patent US11434221B2, “Pyrazine-4-carbamate or -urea derivatives as herbicides” (Syngenta Participations AG, priority 2017, dated 2022)

test system: Alopecurus myosuroides (ALOMY); test: Pre-emergence herbicidal activity, glasshouse pot test; type: in vivo; set-up: key: 5=total damage to plant; 0=no damage to plant; conditions: Rate 1000 g/ha; sprayed one day after sowing; evaluated after 13 days
Method: (§1) Seeds of a variety of test species were sown in standard soil in pots: Triticum aestivium (TRZAW), Avena fatua (AVEFA), Alopecurus myosuroides (ALOMY), Echinochloa crus-galli (ECHCG), Lolium perenne (LOLPE), and Setaria faberi (SETFA). After cultivation for one day (pre-emergence) under controlled conditions in a glasshouse (at 24/16° C., day/night; 14 hours light; 65% humidity), the plants were sprayed with an aqueous spray solution derived from the formulation of the technical active ingredient in acetone/water (50:50) solution containing 0.5% Tween 20 (polyoxyethelyene sorbitan monolaurate, CAS RN 9005-64-5). The test plants were then grown in a glasshouse under controlled conditions (at 24/16° C., day/night; 14 hours light; 65% humidity) and watered twice daily. After 13 days, the test was evaluated (5=total damage to plant; 0=no damage to plant).

SMILES | Control of weed species after pre-emergence application, ALOMY (damage score 0-5)
CC(C)(C)OC(=O)N(C(=O)OC(C)(C)C)c1ncc(-c2cncc(F)c2)nc1Br [Compound H16] | 0
CC(C)(C)OC(=O)OCc1nc(-c2cncc(F)c2)cnc1N(C(=O)OC(C)(C)C)C(=O)OC(C)(C)C [Compound H18] | 0
Cc1nc(-c2cncc(F)c2)cnc1N(C)C(=O)OC(C)(C)C [Compound H19, tert-butyl N-(3-methyl-5-(5-fluoropyridin-3-yl)-pyrazin-2-yl)-N-methyl-carbamate] | 0
C=Cc1nc(-c2cncc(F)c2)cnc1N(C(=O)OC(C)(C)C)C(=O)OC(C)(C)C [Compound H20] | 0

test system: Avena fatua (AVEFA); test: as above; type: in vivo; set-up: key: 5=total damage to plant; 0=no damage to plant; conditions: Rate 1000 g/ha; sprayed one day after sowing; evaluated after 13 days
Method: as §1

SMILES | Control of weed species after pre-emergence application, AVEFA (damage score 0-5)
CC(C)(C)OC(=O)N(C(=O)OC(C)(C)C)c1ncc(-c2cncc(F)c2)nc1Br [Compound H16] | 0
CC(C)(C)OC(=O)OCc1nc(-c2cncc(F)c2)cnc1N(C(=O)OC(C)(C)C)C(=O)OC(C)(C)C [Compound H18] | 0
Cc1nc(-c2cncc(F)c2)cnc1N(C)C(=O)OC(C)(C)C [Compound H19, tert-butyl N-(3-methyl-5-(5-fluoropyridin-3-yl)-pyrazin-2-yl)-N-methyl-carbamate] | 2
C=Cc1nc(-c2cncc(F)c2)cnc1N(C(=O)OC(C)(C)C)C(=O)OC(C)(C)C [Compound H20] | 2

test system: Echinochloa crus-galli (ECHCG); test: as above; type: in vivo; set-up: key: 5=total damage to plant; 0=no damage to plant; conditions: Rate 1000 g/ha; sprayed one day after sowing; evaluated after 13 days
Method: as §1

SMILES | Control of weed species after pre-emergence application, ECHCG (damage score 0-5)
CC(C)(C)OC(=O)N(C(=O)OC(C)(C)C)c1ncc(-c2cncc(F)c2)nc1Br [Compound H16] | 1
CC(C)(C)OC(=O)OCc1nc(-c2cncc(F)c2)cnc1N(C(=O)OC(C)(C)C)C(=O)OC(C)(C)C [Compound H18] | 3
Cc1nc(-c2cncc(F)c2)cnc1N(C)C(=O)OC(C)(C)C [Compound H19, tert-butyl N-(3-methyl-5-(5-fluoropyridin-3-yl)-pyrazin-2-yl)-N-methyl-carbamate] | 4
C=Cc1nc(-c2cncc(F)c2)cnc1N(C(=O)OC(C)(C)C)C(=O)OC(C)(C)C [Compound H20] | 2

test system: Lolium perenne (LOLPE); test: as above; type: in vivo; set-up: key: 5=total damage to plant; 0=no damage to plant; conditions: Rate 1000 g/ha; sprayed one day after sowing; evaluated after 13 days
Method: as §1

SMILES | Control of weed species after pre-emergence application, LOLPE (damage score 0-5)
CC(C)(C)OC(=O)N(C(=O)OC(C)(C)C)c1ncc(-c2cncc(F)c2)nc1Br [Compound H16] | 0
CC(C)(C)OC(=O)OCc1nc(-c2cncc(F)c2)cnc1N(C(=O)OC(C)(C)C)C(=O)OC(C)(C)C [Compound H18] | 1
Cc1nc(-c2cncc(F)c2)cnc1N(C)C(=O)OC(C)(C)C [Compound H19, tert-butyl N-(3-methyl-5-(5-fluoropyridin-3-yl)-pyrazin-2-yl)-N-methyl-carbamate] | 1
C=Cc1nc(-c2cncc(F)c2)cnc1N(C(=O)OC(C)(C)C)C(=O)OC(C)(C)C [Compound H20] | 1

test system: Setaria faberi (SETFA); test: as above; type: in vivo; set-up: key: 5=total damage to plant; 0=no damage to plant; conditions: Rate 1000 g/ha; sprayed one day after sowing; evaluated after 13 days
Method: as §1

SMILES | Control of weed species after pre-emergence application, SETFA (damage score 0-5)
CC(C)(C)OC(=O)N(C(=O)OC(C)(C)C)c1ncc(-c2cncc(F)c2)nc1Br [Compound H16] | 1
CC(C)(C)OC(=O)OCc1nc(-c2cncc(F)c2)cnc1N(C(=O)OC(C)(C)C)C(=O)OC(C)(C)C [Compound H18] | 4
Cc1nc(-c2cncc(F)c2)cnc1N(C)C(=O)OC(C)(C)C [Compound H19, tert-butyl N-(3-methyl-5-(5-fluoropyridin-3-yl)-pyrazin-2-yl)-N-methyl-carbamate] | 5
C=Cc1nc(-c2cncc(F)c2)cnc1N(C(=O)OC(C)(C)C)C(=O)OC(C)(C)C [Compound H20] | 4

test system: Triticum aestivium (TRZAW); test: as above; type: in vivo; set-up: key: 5=total damage to plant; 0=no damage to plant; conditions: Rate 1000 g/ha; sprayed one day after sowing; evaluated after 13 days
Method: as §1

SMILES | Control of weed species after pre-emergence application, TRAZW (damage score 0-5)
CC(C)(C)OC(=O)N(C(=O)OC(C)(C)C)c1ncc(-c2cncc(F)c2)nc1Br [Compound H16] | 0
CC(C)(C)OC(=O)OCc1nc(-c2cncc(F)c2)cnc1N(C(=O)OC(C)(C)C)C(=O)OC(C)(C)C [Compound H18] | 0
Cc1nc(-c2cncc(F)c2)cnc1N(C)C(=O)OC(C)(C)C [Compound H19, tert-butyl N-(3-methyl-5-(5-fluoropyridin-3-yl)-pyrazin-2-yl)-N-methyl-carbamate] | 0
C=Cc1nc(-c2cncc(F)c2)cnc1N(C(=O)OC(C)(C)C)C(=O)OC(C)(C)C [Compound H20] | 1

test system: Alopecurus myosuroides (ALOMY); test: Post-emergence herbicidal activity, glasshouse pot test; type: in vivo; set-up: key: 5=total damage to plant; 0=no damage to plant; conditions: Rate 1000 g/ha; sprayed after 8 days cultivation; evaluated after 13 days
Method: (§2) Seeds of a variety of test species were sown in standard soil in pots: Triticum aestivium (TRZAW), Avena fatua (AVEFA), Alopecurus myosuroides (ALOMY), Echinochloa crus-galli (ECHCG), Lolium perenne (LOLPE), and Setaria faberi (SETFA). After 8 days cultivation (post-emergence) under controlled conditions in a glasshouse (at 24/16° C., day/night; 14 hours light; 65% humidity), the plants were sprayed with an aqueous spray solution derived from the formulation of the technical active ingredient in acetone/water (50:50) solution containing 0.5% Tween 20 (polyoxyethelyene sorbitan monolaurate, CAS RN 9005-64-5). The test plants were then grown in a glasshouse under controlled conditions (at 24/16° C., day/night; 14 hours light; 65% humidity) and watered twice daily. After 13 days, the test was evaluated (5=total damage to plant; 0=no damage to plant).

SMILES | Control of weed species after post-emergence application, ALOMY (damage score 0-5)
CC(C)(C)OC(=O)N(C(=O)OC(C)(C)C)c1ncc(-c2cncc(F)c2)nc1Br [Compound H16] | 0
CC(C)(C)OC(=O)OCc1nc(-c2cncc(F)c2)cnc1N(C(=O)OC(C)(C)C)C(=O)OC(C)(C)C [Compound H18] | 0
Cc1nc(-c2cncc(F)c2)cnc1N(C)C(=O)OC(C)(C)C [Compound H19, tert-butyl N-(3-methyl-5-(5-fluoropyridin-3-yl)-pyrazin-2-yl)-N-methyl-carbamate] | 0
C=Cc1nc(-c2cncc(F)c2)cnc1N(C(=O)OC(C)(C)C)C(=O)OC(C)(C)C [Compound H20] | 0

test system: Avena fatua (AVEFA); test: as above; type: in vivo; set-up: key: 5=total damage to plant; 0=no damage to plant; conditions: Rate 1000 g/ha; sprayed after 8 days cultivation; evaluated after 13 days
Method: as §2

SMILES | Control of weed species after post-emergence application, AVEFA (damage score 0-5)
CC(C)(C)OC(=O)N(C(=O)OC(C)(C)C)c1ncc(-c2cncc(F)c2)nc1Br [Compound H16] | 1
CC(C)(C)OC(=O)OCc1nc(-c2cncc(F)c2)cnc1N(C(=O)OC(C)(C)C)C(=O)OC(C)(C)C [Compound H18] | 1
Cc1nc(-c2cncc(F)c2)cnc1N(C)C(=O)OC(C)(C)C [Compound H19, tert-butyl N-(3-methyl-5-(5-fluoropyridin-3-yl)-pyrazin-2-yl)-N-methyl-carbamate] | 3
C=Cc1nc(-c2cncc(F)c2)cnc1N(C(=O)OC(C)(C)C)C(=O)OC(C)(C)C [Compound H20] | 2

test system: Echinochloa crus-galli (ECHCG); test: as above; type: in vivo; set-up: key: 5=total damage to plant; 0=no damage to plant; conditions: Rate 1000 g/ha; sprayed after 8 days cultivation; evaluated after 13 days
Method: as §2

SMILES | Control of weed species after post-emergence application, ECHCG (damage score 0-5)
CC(C)(C)OC(=O)N(C(=O)OC(C)(C)C)c1ncc(-c2cncc(F)c2)nc1Br [Compound H16] | 1
CC(C)(C)OC(=O)OCc1nc(-c2cncc(F)c2)cnc1N(C(=O)OC(C)(C)C)C(=O)OC(C)(C)C [Compound H18] | 4
Cc1nc(-c2cncc(F)c2)cnc1N(C)C(=O)OC(C)(C)C [Compound H19, tert-butyl N-(3-methyl-5-(5-fluoropyridin-3-yl)-pyrazin-2-yl)-N-methyl-carbamate] | 4
C=Cc1nc(-c2cncc(F)c2)cnc1N(C(=O)OC(C)(C)C)C(=O)OC(C)(C)C [Compound H20] | 4

test system: Lolium perenne (LOLPE); test: as above; type: in vivo; set-up: key: 5=total damage to plant; 0=no damage to plant; conditions: Rate 1000 g/ha; sprayed after 8 days cultivation; evaluated after 13 days
Method: as §2

SMILES | Control of weed species after post-emergence application, LOLPE (damage score 0-5)
CC(C)(C)OC(=O)N(C(=O)OC(C)(C)C)c1ncc(-c2cncc(F)c2)nc1Br [Compound H16] | 2
CC(C)(C)OC(=O)OCc1nc(-c2cncc(F)c2)cnc1N(C(=O)OC(C)(C)C)C(=O)OC(C)(C)C [Compound H18] | 1
Cc1nc(-c2cncc(F)c2)cnc1N(C)C(=O)OC(C)(C)C [Compound H19, tert-butyl N-(3-methyl-5-(5-fluoropyridin-3-yl)-pyrazin-2-yl)-N-methyl-carbamate] | 2
C=Cc1nc(-c2cncc(F)c2)cnc1N(C(=O)OC(C)(C)C)C(=O)OC(C)(C)C [Compound H20] | 3

test system: Setaria faberi (SETFA); test: as above; type: in vivo; set-up: key: 5=total damage to plant; 0=no damage to plant; conditions: Rate 1000 g/ha; sprayed after 8 days cultivation; evaluated after 13 days
Method: as §2

SMILES | Control of weed species after post-emergence application, SETFA (damage score 0-5)
CC(C)(C)OC(=O)N(C(=O)OC(C)(C)C)c1ncc(-c2cncc(F)c2)nc1Br [Compound H16] | 3
CC(C)(C)OC(=O)OCc1nc(-c2cncc(F)c2)cnc1N(C(=O)OC(C)(C)C)C(=O)OC(C)(C)C [Compound H18] | 3
Cc1nc(-c2cncc(F)c2)cnc1N(C)C(=O)OC(C)(C)C [Compound H19, tert-butyl N-(3-methyl-5-(5-fluoropyridin-3-yl)-pyrazin-2-yl)-N-methyl-carbamate] | 5
C=Cc1nc(-c2cncc(F)c2)cnc1N(C(=O)OC(C)(C)C)C(=O)OC(C)(C)C [Compound H20] | 5

test system: Triticum aestivium (TRZAW); test: as above; type: in vivo; set-up: key: 5=total damage to plant; 0=no damage to plant; conditions: Rate 1000 g/ha; sprayed after 8 days cultivation; evaluated after 13 days
Method: as §2

SMILES | Control of weed species after post-emergence application, TRAZW (damage score 0-5)
CC(C)(C)OC(=O)N(C(=O)OC(C)(C)C)c1ncc(-c2cncc(F)c2)nc1Br [Compound H16] | 0
CC(C)(C)OC(=O)OCc1nc(-c2cncc(F)c2)cnc1N(C(=O)OC(C)(C)C)C(=O)OC(C)(C)C [Compound H18] | 0
Cc1nc(-c2cncc(F)c2)cnc1N(C)C(=O)OC(C)(C)C [Compound H19, tert-butyl N-(3-methyl-5-(5-fluoropyridin-3-yl)-pyrazin-2-yl)-N-methyl-carbamate] | 0
C=Cc1nc(-c2cncc(F)c2)cnc1N(C(=O)OC(C)(C)C)C(=O)OC(C)(C)C [Compound H20] | 1
